The record followed here is patent US12403121B2, “Anticancer rocaglamide derivatives” (priority 2018, dated 2025).

Test [1] concerns ST8814 NF1−/− MPNST cells. Nature of the test: 3-day resazurin cell proliferation assay, ST8814 MPNST cells. Format: cell-based, human. Particulars: read-out: IC50 (nM) ST8814 NF1−/− MPNST cells. The protocol:
(§1) The human MPNST cell lines, ST8814, STS26T, S462, T265, and luciferase-expressing ST8814-Luc, the human NF2-deficient meningioma cell line Ben-Men-1, the NJ2 mouse schwannoma cell line Sch10545, and primary human Schwann cells were propagated as previously described. Oblinger et al., Neuro-Oncol., 18:1265-1277 (2016). The Ewing sarcoma cell line A673 and the osteosarcoma cell lines, 143B and MG-63, were grown in Dulbecco's Modified Eagle's (DME) medium (Millipore-Sigma) supplemented with 10% fetal bovine serum (FBS; Atlanta Biological). The silvestrol-sensitive 697 and silvestrol-resistant 697-R pre-B acute lymphoblastic leukemia cells (Gupta et al., AAPS J., 13:357-364 (2011)), the Ewing sarcoma cell line TC32, the osteosarcoma cell lines, Saos2 and OS17, and the rhabdomyosarcoma cell line RD were cultivated in RPMI 1640 medium (Millipore-Sigma) plus 10% FBS.
(§2) Actively-growing cells were seeded in 96-well plates (Sarstedt) at 2,000 cells/well for Ben-Men-1 and RD cells, 30,000 cells/well for 697 and 697-R cells, and 4,000 cells/well for all other cell lines. The following day, cells were treated with various concentrations of each compound or and 0.05% of DMSO as the control for six days for MG-63 cells or three days for all remaining cell lines. Cell proliferation was assessed using resazurin assays and the IC50 value calculated. Cell cycle analysis was performed accordingly. Burns et al., Cancer Res., 73:792-803 (2013).
(§3) To search for compounds with better drug-like properties, the inventors conducted a side-by-side comparison of ten rocaglates lacking the dioxanyl ring with silvestrol for growth-inhibitory activity in a panel of MPNST, schwannoma, and meningioma cell lines, which they had previously shown to be sensitive to the antiproliferative action of silvestrol. […] The average IC50 value of each rocaglate was determined by 3-day resazurin proliferation assays. […] Further structure and activity comparison discerned some positions on the cyclopenta[b]benzofuran scaffold that affected the antiproliferative activity of rocaglates.
On the technique in general: The colour change of resazurin is a common sign of viable cells or microbes.

Test [2] relates to Ben-Men-1 NF2−/− meningioma cells. Nature of the test: 3-day resazurin cell proliferation assay, Ben-Men-1 meningioma cells. The format is cell-based, human. Particulars: read-out: IC50 (nM) Ben-Men-1 NF2−/− meningioma cells. How it is done:
as §1, §2, §3

The test system of test [3] is STS26T NF1+/+ MPNST cells. In words: 3-day resazurin cell proliferation assay, STS26T MPNST cells. Format: cell-based, human. Particulars: read-out: IC50 (nM) STS26T NF1+/+ MPNST cells. The protocol: as §1, §2, §3
Test [4] relates to Sch10545 Nf2−/− schwannoma cells. In words: 3-day resazurin cell proliferation assay, Sch10545 schwannoma cells. Format: cell-based, mouse. As to conditions: read-out: IC50 (nM) Sch10545 Nf2−/− schwannoma cells. How it is done:
as §1, §2, §3

In test [5] the test system is A673, TC32, 143B, MG-63, Saos2, OS17 and RD sarcoma cell lines. Nature of the test: Cell proliferation in Ewing sarcoma, osteosarcoma and rhabdomyosarcoma cell lines. The format is cell-based. The protocol:
as §1, §2
Since MPNSTs comprise only ˜2% of all sarcomas (Farid et al. Oncologist, 19:193-201 (2014)), the inventors expanded their testing of Roc and DDR to three other more prevalent sarcomas particularly in children and young adults: Ewing sarcoma, osteosarcoma, and rhabdomyosarcoma.

The next test relates to STS26T cells. In words: Western blots of treated MPNST cells. The format is cell-based, human. As to conditions: 1 or 2 IC50. How it is done:
FIGS. 2A and 2B provide images showing that DDR and Roc increase caspase and PARP cleavage and elevated the levels of γH2AX while decreasing the expression of AKT and ERKs in MPNST cells. (A) Protein lysates prepared from STS26T cells treated for 3 days with 1 or 2 IC50 of DDR or Roc were analyzed by Western blots for the expression of various apoptosis-related proteins and mitogenic kinases AKT and ERK1/2. GAPDH served as a loading control. (B) Western blot analysis was performed on lysates from STS26T cells treated for 1 and 2 days with 1 or 2 IC50 of DDR for the expression of the DNA-damage response biomarker phosphorylated H2A.X (γH2A.X). As a positive control, lysates from HMS-97 human malignant schwannoma cells irradiated with 4 Grays (Gy) of X-ray were used.
(§4) Subconfluent cells were treated with the indicated doses of Roc or DDR for 24-72 hours and then harvested in cell lysis buffer (Cell Signaling Technology) containing 1 mM phenylmethylsufonylfluoride and protease inhibitor cocktail (Sigma-Aldrich). The protein content in cleared lysates was quantitated using the microBCA assay (ThermoFisher). Equal amounts of protein were run in sodium dodecyl sulfate-polyacrylamide gels and electrotransferred onto Immobilon-FL PVDF membranes (Millipore). The antibodies used were directed against: MDR1/ABCB1 (#13978), insulin-like growth factor-1 receptor β subunit (IGF-1Rβ; #9750), AKT (#9272), ERK1/2 (#4695), glyceraldehyde-3-phosphate dehydrogenase (GAPDH; #5174), caspase-3 (#9662), caspase-7 (#9492), cleaved caspase-7 (#9491), poly(ADP-ribose) polymerase (PARP; #9532), cleaved PARP (#5625), and phospho-histone H2A.X (pH2A.X[Ser′^39]; #9718; all from Cell Signaling Technology), NKX2.2 (sc-514161), LSD1 (sc-136174), and survivin (sc-17779; Santa Cruz Biotechnology), and FLI1 (ab15289) and cleaved caspase-3 (CC3; ab32042; Abeam). Protein bands were detected using IRDye® infrared fluorescent dye-labeled secondary antibodies and scanning on an Odyssey CLx imaging system (LI-COR Biosciences) using the appropriate fluorescent channel at a resolution of 84 μm.
To confirm induction of apoptosis in rocaglamide-treated MPNST cells, the inventors analyzed protein expression of several markers important for this process. […] A concomitant decrease in the amounts of intact caspases 3 and 7 and PARP was observed, consistent with the enhanced cleavage of these apoptotic markers and possibly due to direct effects of these rocaglamides on protein translation. Likewise, the levels of the pro-survival kinases AKT and ERK1/2 were diminished in rocaglamide-treated MPNST cells.
Background: In western blotting, separated proteins are transferred to a membrane and probed.

In test [6] the test system is panel of MPNST, schwannoma, and meningioma cell lines. Nature of the test: Side-by-side growth inhibition comparison with silvestrol in a cell line panel. Format: cell-based. Particulars: all cell lines tested. The protocol:
as §2, §3

For test [7], the system named is STS26T and ST8814 MPNST cells. In words: Flow cytometry cell cycle analysis. The format is cell-based, human. Particulars: one- or two-IC50 doses, three days. The protocol:
as §2

Test [8] concerns TC32 Ewing sarcoma, 143B osteosarcoma, and RD rhabdomyosarcoma cells. Nature of the test: Western blots of treated sarcoma cells. The format is cell-based. The protocol: FIGS. 7A-7C provide images showing DDR and Roc reduce multiple signaling proteins important for the growth and survival of sarcoma cells. Lysates prepared from TC32 Ewing sarcoma (A), 143B osteosarcoma (B), and RD rhabdomyosarcoma (C) cells were treated 1 and 2 days with the indicated concentrations of DDR or Roc and analyzed by Western blotting for the expression of various oncogenic driver proteins. GAPDH was used as a loading control.
as §4
To further examine the molecular mechanisms underlying the antiproliferative effects of rocaglamides, the inventors treated TC32 Ewing sarcoma, 143B osteosarcoma, and RD rhabdomyosarcoma cells with 1- or 2-IC50 dose of DDR or rocaglamide for 1-2 days followed by Western blotting for several known drivers of cell survival and proliferation. […] They also observed reduction of the IGF-1Rβ levels in rocaglamide-treated MPNST cells. In addition, Roc and DDR decreased the levels of AKT, ERKs, cyclin D1 and survivin in treated TC32, 143B, and RD cells (FIG. 7). Intriguingly, the oncogenic fusion protein EWS-FLI1, which acts as an aberrant transcription factor in Ewing sarcoma, was not affected in Roc- and DDR-treated TC32 Ewing sarcoma cells (FIG. 7A). […] However, the expression of lysine demethylase 1 (LSD1), which modulates EWS-FLI1 transcriptional activity (Sankar et al., Oncogene, 32:5089-5100 (2013)), and NKX2.2, an EWS-FL11-regulated gene necessary for oncogenic transformation (Smith et al., Cancer Cell, 9:405-416 (2006)), were diminished by these rocaglamides in TC32 cells (FIG. 7A).

Where [9] appears, read: 3-day resazurin proliferation assay, average IC50.

SMILES strings stand for the structures. Read-outs that look alike come from different tables or passages of the source. Some results are limits rather than exact numbers.

As for `COC(=O)C1C(O)C2(OC)c3c(OC)cc(OC)cc3OC2(c2ccc(OC)cc2)C1c1ccccc1` (centres unmarked) [Methyl 8b-O-methylrocaglate], the IC50 in test [1] (setting [9]) was over 20000 nM; in [2] (setting [9]) it was over 10000 nM; in test [3] (setting [9]) it was at least 10000 nM; in test [4] (setting [9]) it was 9300 nM.

Take `COc1cc(OC)c2c(c1)OC1(c3ccc4c(c3)OCO4)C(c3ccccc3)CC(O)C21OC` (centres unmarked) [8b-O-methyl-4′-demethoxy-3′,4′-methylenedioxyrocaglaol]: the IC50 is 10000 nM in test [1] (setting [9]), over 2500 nM in test [2] (setting [9]), 5000 nM in test [3] (setting [9]) and over 2500 nM in test [4] (setting [9]).

Consider `COc1ccc([C@@]23Oc4cc(OC)cc(OC)c4[C@]2(O)[C@H](O)[C@H](C(N)=O)[C@H]3c2ccccc2)cc1` [Didesmethylrocaglamide], for which the “IC50 values of DDR compared with Roc” value in [5] (every sarcoma cell line tested) is recorded as “lower IC5O values than Roc”. Also, the “activity against sarcoma cell lines” value in [5] (two Ewing sarcoma, four osteosarcoma, one rhabdomyosarcoma cell lines) is “highly active”. Moreover, the “levels of γH2AX” value in the test with STS26T cells (STS26T MPNST cells) is recorded as “elevated”. In addition, the “cleavage of caspases 3 and 7 and PARP” value in the test with STS26T cells (STS26T cells, 3 days) is recorded as “increased cleavage”. In addition, the “expression of AKT and ERKs” value with STS26T cells (STS26T cells, 3 days) is reported as “decreasing”. Also, the IC50 in [1] (Homo sapiens, ST88-14, 72 h) was 5 nM; in test [2] (Homo sapiens, 72 h), 5 nM; in [3] (Homo sapiens, STS-26T, 72 h) it was 5 nM; in [4] (Mus musculus, 72 h), 10 nM. The “potency relative to silvestrol” value in test [6] was about 2 fold. Besides, the G2/M fraction result in [7] is “marked increase in the GVM fraction”. For the same compound, in [8] (1- or 2-IC50 dose, 1-2 days, all three sarcoma cell lines), the “levels of the β subunit of IGF-1R” value is “reliably reduced”. Moreover, the “levels of AKT, ERKs, cyclin D1 and survivin” value in test [8] (TC32, 143B, and RD cells, 1- or 2-IC50 dose, 1-2 days) is listed as “decreased”. In addition, the “EWS-FLI1 fusion protein level” value in [8] (TC32 Ewing sarcoma cells) was “not affected”. In test [8] (TC32 cells), the “expression of LSD1 and NKX2.2” value was “diminished”.

For the compound `COc1ccc([C@@]23Oc4cc(OC)cc(OC)c4[C@]2(OC)[C@H](O)C[C@H]3c2ccccc2)cc1` [8b-O-methylrocaglaol], the IC50 in test [1] (setting [9]), in test [2] (setting [9]), in [3] (setting [9]) and in test [4] (setting [9]) was over 20000 nM each time.

As for `COC(=O)C1C(O)C2(O)c3c(OC)cc(OC)cc3OC2(c2ccc3c(c2)OCO3)C1c1ccccc1` (centres unmarked) [Methyl 4′-demethoxy-3′,4′-methylenedioxyrocaglate], the IC50 stood at 70 nM in test [1] (setting [9]), 80 nM in [2] (setting [9]), 35 nM in test [3] (setting [9]) and 60 nM in test [4] (setting [9]).

With `COC(=O)C1C(O)C2(OC)c3c(OC)cc(OC)cc3OC2(c2ccc3c(c2)OCO3)C1c1ccccc1` (centres unmarked) [Methyl 8b-O-methyl-4′-demethoxy-3′,4′-methylenedioxyrocaglate], the IC50 turned out to be 2000 nM in test [1] (setting [9]), 3800 nM in test [2] (setting [9]), 1300 nM in [3] (setting [9]) and 1900 nM in [4] (setting [9]).

Regarding `COC(=O)[C@H]1[C@@H](O)[C@@]2(O)c3c(OC)cc(OC)cc3O[C@@]2(c2ccc(OC)cc2)[C@@H]1c1ccccc1` [Methyl rocaglate], the IC50 came to 35 nM in [1] (setting [9]), 55 nM in test [2] (setting [9]), 25 nM in test [3] (setting [9]) and 50 nM in test [4] (setting [9]).

On to `COc1cc(OC)c2c(c1)OC1(c3ccc4c(c3)OCO4)C(c3ccccc3)CC(O)C21O` (centres unmarked) [4′-demethoxy-3′,4′-methylenedioxyrocaglaol], for which the IC50 worked out at 120 nM in test [1] (setting [9]), 85 nM in test [2] (setting [9]), 55 nM in [3] (setting [9]) and 65 nM in test [4] (setting [9]).

As to `COc1ccc([C@@]23Oc4cc(OC)cc(OC)c4[C@]2(O)[C@H](O)C[C@H]3c2ccccc2)cc1` [Rocaglaol], the IC50 in test [1] (Homo sapiens, ST88-14, 72 h, 3-day resazurin proliferation assay, average IC50) amounted to 90 nM; in [2] (Homo sapiens, 72 h, 3-day resazurin proliferation assay, average IC50) it was 100 nM; in test [3] (Homo sapiens, STS-26T, 72 h, 3-day resazurin proliferation assay, average IC50) it was 40 nM; in test [4] (Mus musculus, 72 h, 3-day resazurin proliferation assay, average IC50) it was 60 nM.
